Data: ChEMBL document CHEMBL5365473, “Novel Sulfonylurea-Based NLRP3 Inflammasome Inhibitor for Efficient Treatment of Nonalcoholic Steatohepatitis, Endotoxic Shock, and Colitis” (J Med Chem, 2023)
Calls of active or inactive are those of the source. The rule behind the calls is not given here.

How the values were obtained:
Mus musculus [1] = test: Antiinflammatory activity against MCD diet-induced NASH C57BL/6 mouse model assessed as reduction in liver fibrosis at 40 mg/kg, po administered via gavage for 5 weeks by H and E staining based analysis; type: functional, organism-based
Mus musculus [2] = test: Antiinflammatory activity against MCD diet-induced NASH C57BL/6 mouse model assessed as reduction in balloon dilatation in liver at 40 mg/kg, po administered via gavage for 5 weeks by H and E staining based analysis; type: functional, organism-based
[3] = molecular target: NLR family CARD domain-containing protein 4 (Mus musculus) (UniProt Q3UP24); test: Inhibition of NLRC4 inflammasome in mouse J774.A1 cells assessed as inhibition of caspase-1 activation at 30 nM primed with LPS for 4.5 hrs followed by incubation with compound for 24 hrs and later stimulated with flagellin for 24 hrs by immunoblot analysis; type: cell-based; settings: time 48.0 hrs
Mus musculus [4] = test: Antiinflammatory activity against MCD diet-induced NASH C57BL/6 mouse model assessed as improvement in liver morphology at 40 mg/kg, po administered via gavage for 5 weeks by H and E staining based analysis; type: functional, organism-based
[5] = molecular target: T1, Interferon-inducible protein AIM2 (Mus musculus) (UniProt Q91VJ1); test: Inhibition of AIM2 inflammasome in mouse J774.A1 cells assessed as inhibition of IL-1 beta secretion at 30 nM primed with LPS for 4.5 hrs followed by incubation with compound for 24 hrs and later stimulated with poly (dA:dT) for 6 hrs by immunoblot analysis; type: cell-based; settings: time 30.0 hrs
T1 sequence (whole entry): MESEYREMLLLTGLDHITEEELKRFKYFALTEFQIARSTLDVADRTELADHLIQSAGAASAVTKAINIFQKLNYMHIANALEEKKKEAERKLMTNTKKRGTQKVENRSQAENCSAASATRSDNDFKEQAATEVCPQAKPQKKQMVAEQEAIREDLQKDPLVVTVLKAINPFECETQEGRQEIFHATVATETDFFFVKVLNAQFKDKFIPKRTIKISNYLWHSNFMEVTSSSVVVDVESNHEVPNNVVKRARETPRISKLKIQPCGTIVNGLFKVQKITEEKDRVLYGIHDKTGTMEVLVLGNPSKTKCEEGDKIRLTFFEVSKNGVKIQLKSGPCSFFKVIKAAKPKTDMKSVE

Mus musculus [6] = test: Antiinflammatory activity against MCD diet-induced NASH C57BL/6 mouse model assessed as reduction in liver fibrosis at 40 mg/kg, po administered via gavage for 5 weeks by Sirius red staining based analysis; type: functional, organism-based
L02 = test: Cytotoxicity against human HL7702 cells assessed as reduction in cell viability at 500 uM measured after 24 hrs by CCK8 assay; type: toxicity, cell-based; settings: l02, 24 h
Mus musculus [7] = test: Antiinflammatory activity against MCD diet-induced NASH C57BL/6 mouse model assessed as reduction in liver steatosis at 40 mg/kg, po administered via gavage for 5 weeks by Sirius red staining based analysis; type: functional, organism-based
THP-1 = test: Effect on ROS production in PMA-induced differentiated human THP-1 cells at 30 nM pretreated with compound for 24 hrs followed by stimulation with LPS for 4.5 hrs and ATP for 1 hr by MitoSOX dye based confocal microscopy; type: functional, cell-based; settings: time 29.5 hrs
[8] = Oral bioavailability in ICR mouse at 10 mg/kg by LC-MS/MS analysis; type: ADME, organism-based; settings: in vivo
[9] = Drug uptake in Sprague-Dawley rat stomach at 50 mg/kg, po measured for 24 hrs by LC-MS/MS analysis; type: ADME, organism-based; settings: in vivo
[10] = Toxicity against male ICR mouse assessed as effect on plasma creatinine level at 200 to 500 mg/kg administered via gavage for 12 days; type: organism-based; settings: in vivo, po, 288 h, dose 200-500 mg/kg, time 12 day
[11] = Cmax in ICR mouse at 5 mg/kg, iv by LC-MS/MS analysis; type: ADME, organism-based; set-up: dose 5 mg/kg, route iv; settings: in vivo
[12] = Drug uptake in Sprague-Dawley rat heart at 50 mg/kg, po measured for 24 hrs by LC-MS/MS analysis; type: ADME, organism-based; settings: in vivo
Mus musculus [13] = test: Antiinflammatory activity against MCD diet-induced NASH C57BL/6 mouse model assessed as reduction in liver steatosis at 40 mg/kg, po administered via gavage for 5 weeks by H and E staining based analysis; type: functional, organism-based
Mus musculus [14] = test: Antiinflammatory activity against MCD diet-induced NASH C57BL/6 mouse model assessed as reduction in liver steatosis at 40 mg/kg, po administered via gavage for 5 weeks by Masson's trichrome staining based analysis; type: functional, organism-based
Mus musculus [15] = test: Antiinflammatory activity against MCD diet-induced NASH C57BL/6 mouse model assessed as reduction in balloon dilatation in liver at 40 mg/kg, po administered via gavage for 5 weeks by Masson's trichrome staining based analysis; type: functional, organism-based
Mus musculus [16] = test: Antiinflammatory activity against MCD diet-induced NASH C57BL/6 mouse model assessed as improvement in liver morphology at 40 mg/kg, po administered via gavage for 5 weeks by Sirius red staining based analysis; type: functional, organism-based
[17] = molecular target: NACHT, LRR and PYD domains-containing protein 3 (Mus musculus) (UniProt Q8R4B8); test: Inhibition of NLRP3 inflammasome in mouse J774.A1 cells assessed as inhibition of IL-1 beta secretion primed with LPS for 4.5 hrs followed by incubation with compound for 2.5 hrs and later stimulated with ATP for 30 mins by immunoblot analysis; type: cell-based; settings: dose 3-30 nM, time 3.0 hrs
[18] = Drug uptake in Sprague-Dawley rat adipose tissue at 50 mg/kg, po measured for 24 hrs by LC-MS/MS analysis; type: ADME, organism-based; settings: in vivo
[19] = Toxicity against female ICR mouse assessed as effect on heart weight at 200 to 500 mg/kg administered via gavage for 12 days; type: organism-based; settings: in vivo, po, 288 h, dose 200-500 mg/kg, time 12 day
[20] = Drug uptake in Sprague-Dawley rat jejunum at 50 mg/kg, po measured for 24 hrs by LC-MS/MS analysis; type: ADME, organism-based; settings: in vivo
[21] = Drug uptake in Sprague-Dawley rat brain at 50 mg/kg, po measured for 24 hrs by LC-MS/MS analysis; type: ADME, organism-based; settings: in vivo
[22] = Toxicity against male ICR mouse assessed as effect on liver weight at 200 to 500 mg/kg administered via gavage for 12 days; type: organism-based; settings: in vivo, po, 288 h, dose 200-500 mg/kg, time 12 day
[23] = Half life in ICR mouse at 10 mg/kg, po by LC-MS/MS analysis; type: ADME, organism-based; settings: in vivo
[24] = molecular target: NACHT, LRR and PYD domains-containing protein 3 (Mus musculus) (UniProt Q8R4B8); test: Inhibition of NLRP3 inflammasome in mouse J774.A1 cells assessed as inhibition of caspase-1 activation primed with LPS for 4.5 hrs followed by incubation with compound for 2.5 hrs and later stimulated with ATP for 30 mins by immunoblot analysis; type: cell-based; settings: dose 3-30 nM, time 3.0 hrs
Mus musculus [25] = test: Antiinflammatory activity against LPS-induced lethal septic shock C57BL/6 mouse model assessed as reduction in serum IL-1 beta level at 20 to 40 mg/kg, ip administered for 1 hr prior to LPS challenge and measured after 2.5 hrs by ELISA; type: functional, organism-based; settings: dose 20-40 mg/kg, time 3.5 hrs
[26] = MRT (0 to infinity) in ICR mouse at 5 mg/kg, iv by LC-MS/MS analysis; type: ADME, organism-based; settings: in vivo
[27] = Apparent volume of distribution in ICR mouse at 5 mg/kg, iv by LC-MS/MS analysis; type: ADME, organism-based; settings: in vivo, read-out: Vz
[28] = Toxicity against female ICR mouse assessed as effect on liver weight at 200 to 500 mg/kg administered via gavage for 12 days; type: organism-based; settings: in vivo, po, 288 h, dose 200-500 mg/kg, time 12 day

Sequence of NACHT, LRR and PYD domains-containing protein 3 (Mus musculus) (Q8R4B8 whole entry, the tested form may be a part): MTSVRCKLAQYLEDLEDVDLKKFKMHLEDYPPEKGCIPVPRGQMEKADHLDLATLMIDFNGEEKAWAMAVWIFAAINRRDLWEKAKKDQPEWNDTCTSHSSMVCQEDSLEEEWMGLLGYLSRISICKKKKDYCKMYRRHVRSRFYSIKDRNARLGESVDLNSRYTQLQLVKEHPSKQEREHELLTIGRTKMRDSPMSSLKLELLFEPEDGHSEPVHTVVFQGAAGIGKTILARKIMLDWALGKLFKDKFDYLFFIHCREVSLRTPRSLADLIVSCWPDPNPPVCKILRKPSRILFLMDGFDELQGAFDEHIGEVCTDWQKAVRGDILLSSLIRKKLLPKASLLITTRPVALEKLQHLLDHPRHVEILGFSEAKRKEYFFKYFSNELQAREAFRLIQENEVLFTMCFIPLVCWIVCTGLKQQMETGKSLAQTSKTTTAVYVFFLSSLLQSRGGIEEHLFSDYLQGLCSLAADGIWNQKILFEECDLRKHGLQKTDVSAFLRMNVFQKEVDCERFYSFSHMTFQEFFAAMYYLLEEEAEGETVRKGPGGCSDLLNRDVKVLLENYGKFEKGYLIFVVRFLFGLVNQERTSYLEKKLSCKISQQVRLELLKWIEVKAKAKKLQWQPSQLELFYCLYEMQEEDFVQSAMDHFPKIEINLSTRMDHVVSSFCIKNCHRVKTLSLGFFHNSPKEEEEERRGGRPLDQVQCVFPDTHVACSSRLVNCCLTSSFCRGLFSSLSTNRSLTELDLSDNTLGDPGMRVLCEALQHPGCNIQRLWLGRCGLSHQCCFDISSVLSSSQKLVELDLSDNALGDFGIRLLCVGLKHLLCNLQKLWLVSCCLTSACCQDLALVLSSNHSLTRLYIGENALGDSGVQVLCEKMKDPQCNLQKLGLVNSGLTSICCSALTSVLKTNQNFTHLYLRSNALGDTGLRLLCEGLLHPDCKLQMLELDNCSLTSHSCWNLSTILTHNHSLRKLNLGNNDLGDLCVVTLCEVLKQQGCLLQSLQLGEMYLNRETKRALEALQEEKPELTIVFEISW
Sequence of NLR family CARD domain-containing protein 4 (Mus musculus) (Q3UP24 whole entry, the tested form may be a part): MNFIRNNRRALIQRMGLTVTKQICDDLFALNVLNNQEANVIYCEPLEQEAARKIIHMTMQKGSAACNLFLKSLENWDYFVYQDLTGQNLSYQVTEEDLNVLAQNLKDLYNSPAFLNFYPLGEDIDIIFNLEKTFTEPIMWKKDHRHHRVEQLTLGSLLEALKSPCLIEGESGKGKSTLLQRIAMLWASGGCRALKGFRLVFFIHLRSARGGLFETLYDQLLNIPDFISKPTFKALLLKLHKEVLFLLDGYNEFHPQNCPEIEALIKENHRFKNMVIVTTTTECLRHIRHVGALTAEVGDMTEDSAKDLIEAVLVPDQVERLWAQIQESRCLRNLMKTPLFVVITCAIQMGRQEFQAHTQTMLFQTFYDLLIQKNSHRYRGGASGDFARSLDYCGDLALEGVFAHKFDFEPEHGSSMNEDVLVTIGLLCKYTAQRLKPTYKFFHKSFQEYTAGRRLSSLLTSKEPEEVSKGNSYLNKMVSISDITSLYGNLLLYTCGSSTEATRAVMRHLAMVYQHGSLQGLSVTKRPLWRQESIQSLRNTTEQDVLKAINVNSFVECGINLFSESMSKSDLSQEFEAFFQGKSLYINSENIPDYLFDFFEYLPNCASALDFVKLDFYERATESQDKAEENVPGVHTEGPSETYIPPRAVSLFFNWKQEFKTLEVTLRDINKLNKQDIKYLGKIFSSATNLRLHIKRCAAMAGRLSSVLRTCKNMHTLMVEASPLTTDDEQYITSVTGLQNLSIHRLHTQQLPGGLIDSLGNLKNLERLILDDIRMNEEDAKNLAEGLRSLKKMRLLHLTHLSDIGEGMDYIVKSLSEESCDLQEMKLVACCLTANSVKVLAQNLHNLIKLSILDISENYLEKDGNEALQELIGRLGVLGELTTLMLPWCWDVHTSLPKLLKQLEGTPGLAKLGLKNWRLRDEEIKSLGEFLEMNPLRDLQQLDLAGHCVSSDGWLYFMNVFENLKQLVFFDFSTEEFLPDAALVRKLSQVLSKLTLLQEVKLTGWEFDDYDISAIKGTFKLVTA

## CN(C)Cc1ccc(S(=O)(=O)NC(=O)Nc2c3c(cc4c2CCC4)CCC3)cc1
Mus musculus [1]
  Activity: Active
Mus musculus [2]
  Activity: Active
[3]
  inhibition: inactive
Mus musculus [4]
  Activity: Active
[5]
  inhibition: inactive
Mus musculus [6]
  Activity: Active
L02
  Activity: Non-Toxic
Mus musculus [7]
  Activity: Active
THP-1
  Activity: inactive
[8]
  bioavailability: 85.2%
[9]
  Drug uptake: Active
[10]
  Activity: Non-Toxic
[11]
  Cmax: 22600 ng/mL
[12]
  Drug uptake: Active
Mus musculus [13]
  Activity: Active
Mus musculus [14]
  Activity: Active
Mus musculus [15]
  Activity: Active
Mus musculus [16]
  Activity: Active
[17]
  inhibition: Dose-Dependent Effect
[18]
  Drug uptake: Active
[19]
  Activity: Non-Toxic
[20]
  Drug uptake: Active
[21]
  Drug uptake: Active
[22]
  Activity: Non-Toxic
[23]
  half-life: 3.5 h
[24]
  inhibition: Dose-Dependent Effect
Mus musculus [25]
  Activity: Active
[26]
  MRT inf: 5.3 h
[27]
  Vd: 0.226 L/kg
[28]
  Activity: Non-Toxic
